Biological target: T1, LipA (Sodiomyces alcalophilus, UniProt P0CT91)
T1 construct: Transient in Nicotiana benthamiana; vector adds Pr1b signal peptide, Xpress tag, C-myc tag, KDEL (tags kept); N-glycosylated, about 56 kDa on SDS-PAGE
Experiment: p-nitrophenol release, […] nm
Assay type: biochemical
Conditions: 100 mM phosphate buffer pH 8.0, 40°C

T1 sequence (P0CT91 23-416): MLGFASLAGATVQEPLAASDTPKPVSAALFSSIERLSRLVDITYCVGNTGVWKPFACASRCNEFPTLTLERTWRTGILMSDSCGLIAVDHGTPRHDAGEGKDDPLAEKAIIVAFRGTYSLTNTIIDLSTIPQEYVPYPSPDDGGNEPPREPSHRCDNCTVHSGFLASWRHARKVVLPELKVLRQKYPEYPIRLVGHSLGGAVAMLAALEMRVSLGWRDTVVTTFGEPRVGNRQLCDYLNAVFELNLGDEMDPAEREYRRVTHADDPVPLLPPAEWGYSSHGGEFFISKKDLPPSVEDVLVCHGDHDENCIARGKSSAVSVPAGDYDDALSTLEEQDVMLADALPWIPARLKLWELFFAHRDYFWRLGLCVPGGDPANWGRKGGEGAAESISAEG

Km [µM] | SMILES
100 | CCCCCCCC(=O)Oc1ccc([N+](=O)[O-])cc1 [pNP caprylate (C8)]
70 | CCCCCCCCCCCCCC(=O)Oc1ccc([N+](=O)[O-])cc1 [pNP myristate (C14)]
100 | CCCCCCCCCCCCCCCC(=O)Oc1ccc([N+](=O)[O-])cc1 [pNP palmitate (C16)]

The remaining lines, values behind:

SMILES | Km [µM]
CC(=O)Oc1ccc([N+](=O)[O-])cc1 [pNP acetate (C2)] | 150
CCCC(=O)Oc1ccc([N+](=O)[O-])cc1 [pNP butyrate (C4)] | 160

From article PMC3750315, “The production and characterization of a new active lipase from Acremonium alcalophilum using a plant bioreactor” (Biotechnology for Biofuels, 2013)
